# Target: T1, Aurora-2 (Homo sapiens, UniProt O14965)
# T1 sequence (O14965 1-403): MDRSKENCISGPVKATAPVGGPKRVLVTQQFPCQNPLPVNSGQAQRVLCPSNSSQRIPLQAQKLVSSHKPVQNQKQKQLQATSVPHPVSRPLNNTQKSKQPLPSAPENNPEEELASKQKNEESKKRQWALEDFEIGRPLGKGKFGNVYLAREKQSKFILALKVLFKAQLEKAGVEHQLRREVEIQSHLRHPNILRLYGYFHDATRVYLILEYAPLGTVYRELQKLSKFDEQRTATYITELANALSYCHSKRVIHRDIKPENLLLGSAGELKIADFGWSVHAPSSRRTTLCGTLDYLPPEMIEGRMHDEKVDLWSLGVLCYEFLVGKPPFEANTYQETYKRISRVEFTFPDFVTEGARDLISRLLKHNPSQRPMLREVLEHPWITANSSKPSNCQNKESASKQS
# Assay: Ki determination for the inhibition of Aurora-2 (coupled enzyme assay)
# Format: biochemical
# Settings: 70 nM Aurora-2, 800 μM peptide LRRASLG, 30° C.
# Method: To an assay stock buffer solution containing 0.1 M HEPES 7.5, 10 mM MgCl2, 1 mM DTT, 25 mM NaCl, 2.5 mM phosphoenolpyruvate, […], 30 mg/ml pyruvate kinase, 10 mg/ml lactate dehydrogenase, 40 mM ATP, and 800 μM peptide (LRRASLG, American Peptide, Sunnyvale, Calif.) was added a DMSO solution of a compound of the present invention to a final concentration of 30 μM. The resulting mixture was incubated at 30° C. for 10 min. The reaction was initiated by the addition of 10 μL of Aurora-2 stock solution to give a final concentration of 70 nM in the assay. […] The Ki values were determined from the rate data as a function of inhibitor concentration.
compound,measurement,value
"Cc1cc(Nc2cc(-c3ccccc3)nc(Nc3ccccc3)n2)n[nH]1 [IIIc-1, (5-Methyl-2H-pyrazol-3-yl)-(6-phenyl-2-phenylamino-pyrimidin-4-yl)-amine]",Ki,100 to 1000 nM
